Test results: US8778837B2, “Use of active substance combinations for controlling animal pests” (priority 2007, dated 2014)
Where “and” joins values, the source holds several entries; their conditions need not be identical. Equal entries are not always repeated.

Experiments:
Assay type in all cases: in vivo
[1] = system: Plutella xylostella, sensitive strain; assay: Plutella xylostella test (sensitive strain, cabbage leaf dip)
Description: (§1) The activity to be expected for a given combination of two active substances can be calculated as follows (cf. Colby, S. R., “Calculating Synergistic and Antagonistic Responses of Herbicide Combinations”, Weeds 15, pages 20-22, 1967):
(§2) • X means the degree of destruction expressed in % of the untreated control when using active substance A at an application rate of m ppm or m g/ha, • Y means the degree of destruction expressed in % of the untreated control when using active substance B at an application rate of n ppm or n g/ha, and • E means the degree of destruction expressed in % of the untreated control when employing active substances A and B at application rates of m and n ppm or m and n g/ha, then
(§3) If the actual insecticidal degree of destruction is greater than calculated, the combination is superadditive regarding its destruction, i.e. a synergistic effect is present. In this case, the degree of destruction which is actually observed must exceed the value calculated on the basis of the above formula for the expected degree of destruction (E).
Plutella-Xylostella Test (Sensitive Strain)
(§4) Solvent: 7 parts by weight of dimethylformamide
(§5) Emulsifier: 2 parts by weight of alkylaryl polyglycol ether
(§6) To prepare a suitable preparation of active substance, 1 part by weight of active substance is mixed with the stated amounts of solvent and emulsifier, and the concentrate is diluted to the desired concentration with emulsifier-containing water.
Cabbage leaves (Brassica oleracea) are treated by being dipped into the active substance preparation of the desired concentration and are populated with diamondback moth caterpillars (Plutella xylostella, sensitive strain) while the leaves are still moist.
(§7) After the desired period of time, the destruction is determined in %. Here, 100% means that all the caterpillars have been destroyed; 0% means that no caterpillars have been destroyed. The destruction rates which have been determined are entered in the Colby formula (see sheet 1).

Spodoptera frugiperda = Spodoptera frugiperda test (cabbage leaf dip)
Description: as §1, §2, §3
Spodoptera frugiperda Test
as §4, §5, §6
Cabbage leaves (Brassica oleracea) are treated by being dipped into the active substance preparation of the desired concentration and are populated with armyworm caterpillars (Spodoptera frugiperda) while the leaves are still moist.
as §7

[2] = system: Phaedon cochleariae larvae; assay: Phaedon cochleariae larvae test (cabbage leaf dip)
Description: as §1, §2, §3
Phaedon Cochleariae Larvae Test
as §4, §5, §6
Cabbage leaves (Brassica oleracea) are treated by being dipped into the active substance preparation of the desired concentration and are populated with mustard beetle larvae (Phaedon cochleariae) while the leaves are still moist.
After the desired period of time, the destruction is determined in %. Here, 100% means that all the beetle larvae have been destroyed; 0% means that no beetle larvae have been destroyed. The destruction rates which have been determined are entered in the Colby formula (see sheet 1).

Myzus persicae = Myzus persicae test (cabbage leaf dip)
Description: as §1, §2, §3, §4, §5, §6
Cabbage leaves (Brassica oleracea) which are severely infested with the green peach aphid (Myzus persicae) are treated by being dipped into the active substance preparation of the desired concentration.
After the desired period of time, the destruction is determined in %. Here, 100% means that all the aphids have been destroyed; 0% means that no aphids have been destroyed. The destruction rates which have been determined are entered in the Colby formula (see sheet 1).

## CN/C(=N\[N+](=O)[O-])NCc1cnc(Cl)s1 [Clothianidin, clothianidin]
[1]; 20 ppm
  Destruction in % after 6 d: 25%
Spodoptera frugiperda; 4 ppm
  Destruction in % after 3 d: 95%
[2]; 4 ppm
  Destruction in % after 6 d: 65%
Myzus persicae; 0.8 ppm
  Destruction in % after 6 d: 55%

## N#Cc1nn(-c2c(Cl)cc(C(F)(F)F)cc2Cl)c(N)c1[S+]([O-])C(F)(F)F (stereo not shown) [Fipronil, fipronil]
Spodoptera frugiperda; 0.8 ppm
  Destruction in % after 6 d: 5%
Myzus persicae; 100 ppm
  Destruction in % after 6 d: 65%

## O=[N+]([O-])NC1=NCCN1Cc1ccc(Cl)nc1 [Imidacloprid]
[2]; 20 ppm
  Destruction in % after 6 d: 75%
Myzus persicae; 0.8 ppm
  Destruction in % after 6 d: 75%

## N#Cc1ccccc1NC(=O)c1snc(Cl)c1Cl [Isotianil, 3,4-dichloro-2′-cyano-1,2-thiazole-5-carboxanilide]
[1]; 500 ppm
  Destruction in % after 6 d: 0%
Spodoptera frugiperda; 500 ppm
  Destruction in % after 3 d: 10%
[2]; 500 ppm
  Destruction in % after 6 d: 0%
Myzus persicae; 500 ppm
  Destruction in % after 1 d: 0%
  Destruction in % after 6 d: 10% and 0%

## N#C/N=C1\SCCN1Cc1ccc(Cl)nc1 [Thiacloprid]
[1]; 20 ppm
  Destruction in % after 6 d: 45%
[2]; 4 ppm
  Destruction in % after 6 d: 0%
Myzus persicae; 0.8 ppm
  Destruction in % after 6 d: 45%

## CN1COCN(Cc2cnc(Cl)s2)/C1=N\[N+](=O)[O-] [Thiamethoxam]
Spodoptera frugiperda; 20 ppm
  Destruction in % after 6 d: 70%
[2]; 20 ppm
  Destruction in % after 6 d: 80%
Myzus persicae; 0.8 ppm
  Destruction in % after 1 d: 75%
